Laboratory results reported in the supplement of paper PMC10307832.

Compound: CCN1CCN(c2ccc(Nc3cc(N(C)C(=O)Nc4c(Cl)c(OC)cc(OC)c4Cl)ncn3)cc2)CC1 [BGJ398] + Nc1ncn([C@H]2C[C@H](O)[C@@H](CO)O2)c(=O)n1 [Decitabine] (partner 2 µM)
Test: relative viability (nuclei count vs DMSO), 5 days (fraction); higher = more cells survive
Conditions: first compound 0.01 µM
Outline: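 Five library-drug doses in √10 steps were combined with a fixed anchor-drug dose, or a single drug was given alone, by pin tool to lung cancer cell lines in 1536-well plates the day after seeding. Nuclei were stained and counted after 5 days. Relative viability is the nuclei count in treated wells over that in vehicle wells, taken as the median of duplicate plates.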

Cell Line	relative viability
NCI-H2405	0.703
HOP-62	0.232
HCC-44	0.886
LU99A	0.776
BEN	0.604
HARA	0.587
HCC-78	0.616
NCI-H322M	0.755
LCLC-97TM1	0.238
A-427	0.559
NCI-H1734	0.456
NCI-H460	0.418
NCI-H2347	0.608
NCI-H1395	0.684
201T	0.958
NCI-H1915	0.271

Cell Line	relative viability
HCC-827	0.286
LXF-289	0.351
NCI-H23	0.303
NCI-H647	0.413
NCI-H1651	0.463
EPLC-272H	0.391
NCI-H1792	0.476
NCI-H1355	0.378
NCI-H3122	0.394
NCI-H1437	0.59
NCI-H1755	0.675
HCC-15	0.571
NCI-H1793	0.479
PC-14	0.179
EKVX	0.315

Same assay, conditions: first compound 0.03162 µM

Cell Line	relative viability
NCI-H2405	0.74
HOP-62	0.245
HCC-44	0.914
LU99A	0.763
BEN	0.688
HARA	0.412
HCC-78	0.701
NCI-H322M	0.723
LCLC-97TM1	0.222
A-427	0.564
NCI-H441	0.26
NCI-H1734	0.555
NCI-H460	0.515
NCI-H2347	0.621
NCI-H1395	0.692
201T	0.814

Cell Line	relative viability
NCI-H1915	0.248
LXF-289	0.415
NCI-H23	0.375
NCI-H647	0.359
NCI-H1651	0.604
EPLC-272H	0.3
NCI-H1792	0.533
NCI-H1355	0.309
NCI-H3122	0.416
NCI-H1437	0.532
NCI-H1755	0.738
HCC-15	0.6
NCI-H1793	0.457
PC-14	0.148
EKVX	0.294

Same assay, conditions: first compound 0.1 µM

Cell Line	relative viability
NCI-H2405	0.81
HOP-62	0.204
HCC-44	0.959
LU99A	0.735
BEN	0.796
HARA	0.389
HCC-78	0.682
NCI-H322M	0.771
LCLC-97TM1	0.214
A-427	0.594
NCI-H441	0.275
NCI-H1734	0.409
NCI-H460	0.592
NCI-H2347	0.612
NCI-H1395	0.609
201T	0.835

Cell Line	relative viability
NCI-H1915	0.28
HCC-827	0.332
LXF-289	0.332
NCI-H23	0.279
NCI-H647	0.491
NCI-H1651	0.664
EPLC-272H	0.38
NCI-H1792	0.568
NCI-H1355	0.348
NCI-H3122	0.458
NCI-H1437	0.606
NCI-H1755	0.721
HCC-15	0.78
NCI-H1793	0.451
PC-14	0.252
EKVX	0.388

Same assay, conditions: first compound 0.3162 µM

Cell Line	relative viability
NCI-H2405	0.734
HOP-62	0.225
HCC-44	0.976
LU99A	0.756
BEN	0.681
HARA	0.371
HCC-78	0.777
NCI-H322M	0.602
LCLC-97TM1	0.216
A-427	0.515
NCI-H441	0.273
NCI-H1734	0.404
NCI-H460	0.53
NCI-H2347	0.621
NCI-H1395	0.648
201T	0.797

Cell Line	relative viability
NCI-H1915	0.281
HCC-827	0.185
LXF-289	0.325
NCI-H23	0.271
NCI-H647	0.336
NCI-H1651	0.602
EPLC-272H	0.303
NCI-H1792	0.474
NCI-H1355	0.352
NCI-H3122	0.478
NCI-H1437	0.598
NCI-H1755	0.686
HCC-15	0.73
NCI-H1793	0.423
PC-14	0.193
EKVX	0.349

Same assay, conditions: first compound 1 µM

Cell Line	relative viability
NCI-H2405	0.741
HOP-62	0.215
HCC-44	0.8
LU99A	0.68
BEN	0.591
HARA	0.38
HCC-78	0.695
NCI-H322M	0.833
LCLC-97TM1	0.225
A-427	0.481
NCI-H441	0.224
NCI-H1734	0.47
NCI-H460	0.438
NCI-H2347	0.563
NCI-H1395	0.649
201T	0.807

Cell Line	relative viability
NCI-H1915	0.241
HCC-827	0.27
LXF-289	0.38
NCI-H23	0.325
NCI-H647	0.412
NCI-H1651	0.458
EPLC-272H	0.323
NCI-H1792	0.441
NCI-H1355	0.348
NCI-H3122	0.42
NCI-H1437	0.515
NCI-H1755	0.634
HCC-15	0.618
NCI-H1793	0.376
PC-14	0.135
EKVX	0.316
